Measured values as given in publication PMC5513091, “A novel Alzheimer’s disease drug candidate targeting inflammation and fatty acid metabolism” (Alzheimer's Research & Therapy, 2017).

Test system: cortex metabolites
Assay: Metabolomic analysis of cortex
Type: in vivo, mice
Conditions: cortex
Method: Metabolomic analyses were conducted at Metabolon (Durham, NC, USA) as described previously. For statistical analyses and data display, any missing values were assumed to be below the limits of detection and imputed with the compound minimum (minimum value imputation). An estimate of the FDR (Q value) was calculated to take into account the multiple comparisons that normally occur in metabolomics-based studies, with Q < 0.05 used as an indication of high confidence in a result. The MetaboAnalyst tool was used to generate heat maps.

## Cc1ccc(N(/N=C/c2cccc(OC(F)(F)F)c2)C(=O)C(F)(F)F)c(C)c1 [CAD-31]
AD+31/AD, p-value 0.9434
  mannose-6-phosphate Fold Change: 1.05
AD+31/AD, p-value 0.9957
  cytidine 5'-monophospho-N-acetylneuraminic acid Fold Change: 1
C+31/C, p-value 0.0002
  ergothioneine Fold Change: 0.56
C+31/C, p-value 0.0006
  17-methylstearate Fold Change: 0.54
C+31/C, p-value 0.0029
  phenol sulfate Fold Change: 0.41
C+31/C, p-value 0.0034
  N-delta-acetylornithine Fold Change: 1.51
C+31/C, p-value 0.0046
  gamma-glutamylhistidine Fold Change: 0.55
C+31/C, p-value 0.0049
  1-palmitoylglycerol (16:0) Fold Change: 0.67
C+31/C, p-value 0.0052
  dihomo-linoleate (20:2n6) Fold Change: 0.53
C+31/C, p-value 0.0058
  linoleoyl ethanolamide Fold Change: 0.52
C+31/C, p-value 0.0074
  arachidate (20:0) Fold Change: 0.59
C+31/C, p-value 0.0076
  pyroglutamine* Fold Change: 1.27
C+31/C, p-value 0.0085
  adenosine 2'-monophosphate (2'-AMP) Fold Change: 1.49
C+31/C, p-value 0.0095
  docosatrienoate (22:3n3) Fold Change: 0.35
C+31/C, p-value 0.01
  stearate (18:0) Fold Change: 0.61
C+31/C, p-value 0.0112
  nonadecanoate (19:0) Fold Change: 0.63
C+31/C, p-value 0.0125
  1-oleoylglycerol (18:1) Fold Change: 0.6
C+31/C, p-value 0.0132
  10-nonadecenoate (19:1n9) Fold Change: 0.6
C+31/C, p-value 0.016
  3-hydroxybutyrylcarnitine (2) Fold Change: 1.78
C+31/C, p-value 0.0161
  adrenate (22:4n6) Fold Change: 0.5
C+31/C, p-value 0.0172
  oleate/vaccenate (18:1) Fold Change: 0.59
C+31/C, p-value 0.0212
  eicosenoate (20:1) Fold Change: 0.61
  lactate Fold Change: 1.26
C+31/C, p-value 0.0241
  palmitate (16:0) Fold Change: 0.65
C+31/C, p-value 0.0267
  margarate (17:0) Fold Change: 0.61
C+31/C, p-value 0.0327
  2-hydroxydecanoate Fold Change: 0.68
C+31/C, p-value 0.0338
  1-arachidonylglycerol (20:4) Fold Change: 0.66
C+31/C, p-value 0.0349
  3-hydroxybutyrate (BHBA) Fold Change: 1.87
C+31/C, p-value 0.035
  2-palmitoylglycerol (16:0) Fold Change: 0.65
C+31/C, p-value 0.0357
  succinylcarnitine Fold Change: 0.72
C+31/C, p-value 0.0363
  oleoyl-oleoyl-glycerol (18:1/18:1) [2]* Fold Change: 1.12
C+31/C, p-value 0.0372
  acetyl CoA Fold Change: 1.87
C+31/C, p-value 0.0376
  erucate (22:1n9) Fold Change: 0.64
C+31/C, p-value 0.0387
  glycerol 3-phosphate Fold Change: 0.8
C+31/C, p-value 0.0388
  docosadienoate (22:2n6) Fold Change: 0.62
C+31/C, p-value 0.0422
  acetylcarnitine Fold Change: 1.53
C+31/C, p-value 0.0423
  1-docosahexaenoylglycerol (22:6) Fold Change: 0.64
C+31/C, p-value 0.0449
  1-stearoyl-GPG (18:0) Fold Change: 0.59
C+31/C, p-value 0.0462
  arachidonoyl ethanolamide Fold Change: 0.86
  glucosamine-6-phosphate Fold Change: 1.4
C+31/C, p-value 0.0465
  glutamate Fold Change: 1.09
C+31/C, p-value 0.0476
  tricosenoate (23:1) Fold Change: 0.64
C+31/C, p-value 0.0477
  mead acid (20:3n9) Fold Change: 0.6
C+31/C, p-value 0.0695
  adenosine 5'-diphosphoribose (ADP-ribose) Fold Change: 1.15
C+31/C, p-value 0.0888
  sedoheptulose-7-phosphate Fold Change: 1.15
C+31/C, p-value 0.0897
  2-hydroxystearate Fold Change: 0.58
C+31/C, p-value 0.0923
  UDP-N-acetylglucosamine/galactosamine Fold Change: 1.08
C+31/C, p-value 0.0938
  2-oleoylglycerol (18:1) Fold Change: 0.77
C+31/C, p-value 0.0994
  putrescine Fold Change: 1.2
C+31/C, p-value 0.1114
  2-methylcitrate/homocitrate Fold Change: 1.09
C+31/C, p-value 0.126
  1-palmitoyl-GPG (16:0)* Fold Change: 0.57
C+31/C, p-value 0.1316
  mannose-6-phosphate Fold Change: 1.33
C+31/C, p-value 0.1579
  glutamate, gamma-methyl ester Fold Change: 1.35
C+31/C, p-value 0.1772
  anserine Fold Change: 1.18
C+31/C, p-value 0.179
  gulonate* Fold Change: 1.11
C+31/C, p-value 0.199
  glucose 6-phosphate Fold Change: 1.27
C+31/C, p-value 0.2317
  fructose-6-phosphate Fold Change: 1.26
C+31/C, p-value 0.233
  methylphosphate Fold Change: 1.1
C+31/C, p-value 0.2649
  1-oleoyl-2-linoleoyl-GPC (18:1/18:2)* Fold Change: 0.92
C+31/C, p-value 0.286
  N-formylmethionine Fold Change: 1.07
C+31/C, p-value 0.2996
  acetylphosphate Fold Change: 1.11
C+31/C, p-value 0.3099
  phosphoethanolamine Fold Change: 1.04
C+31/C, p-value 0.3211
  azelate (nonanedioate) Fold Change: 0.81
C+31/C, p-value 0.3291
  methionine Fold Change: 1.08
C+31/C, p-value 0.3422
  coenzyme A Fold Change: 0.88
C+31/C, p-value 0.3687
  arabinose Fold Change: 1.05
C+31/C, p-value 0.3875
  1-palmitoyl-2-gamma-linolenoyl-GPC (16:0/18:3n6)* Fold Change: 0.94
C+31/C, p-value 0.4046
  3-sulfo-nervonoyl-galactosylceramide (d18:1/24:1) Fold Change: 0.97
C+31/C, p-value 0.4061
  N-acetylmethionine Fold Change: 0.96
C+31/C, p-value 0.4075
  UDP-galactose Fold Change: 0.86
C+31/C, p-value 0.4104
  N-acetylglucosaminylasparagine Fold Change: 0.96
C+31/C, p-value 0.4172
  prolylglycine Fold Change: 0.96
C+31/C, p-value 0.4215
  1-stearoyl-GPC (18:0) Fold Change: 1.08
C+31/C, p-value 0.4319
  N-acetylalanine Fold Change: 1.04
C+31/C, p-value 0.4368
  1-oleoyl-2-arachidonoyl-GPI (18:1/20:4) * Fold Change: 1.04
C+31/C, p-value 0.4593
  1-(1-enyl-stearoyl)-2-arachidonoyl-GPE (P-18:0/20:4)* Fold Change: 0.98
C+31/C, p-value 0.4697
  UDP-glucose Fold Change: 0.92
C+31/C, p-value 0.4772
  galactose 1-phosphate Fold Change: 1.14
C+31/C, p-value 0.4871
  1-methylimidazoleacetate Fold Change: 1.07
C+31/C, p-value 0.4904
  cytidine 5'-monophospho-N-acetylneuraminic acid Fold Change: 0.95
C+31/C, p-value 0.5044
  ribose Fold Change: 1.04
C+31/C, p-value 0.512
  glycerate Fold Change: 0.86
C+31/C, p-value 0.5491
  glycerophosphoethanolamine Fold Change: 1.04
C+31/C, p-value 0.5572
  palmitoylcholine Fold Change: 0.92
C+31/C, p-value 0.5722
  1-stearoyl-2-oleoyl-GPI (18:0/18:1)* Fold Change: 1.05
C+31/C, p-value 0.5944
  sphingomyelin (d18:1/18:1, d18:2/18:0) Fold Change: 1.03
C+31/C, p-value 0.6209
  5-methylthioadenosine (MTA) Fold Change: 1.02
C+31/C, p-value 0.6443
  6-phosphogluconate Fold Change: 0.95
C+31/C, p-value 0.6796
  3-hydroxy-3-methylglutarate Fold Change: 1.02
C+31/C, p-value 0.6852
  2'-deoxycytidine Fold Change: 1.04
C+31/C, p-value 0.7525
  N-acetylglutamate Fold Change: 0.99
C+31/C, p-value 0.7663
  beta-citrylglutamate Fold Change: 1.03
C+31/C, p-value 0.8149
  O-methyltyrosine Fold Change: 1.04
C+31/C, p-value 0.8284
  N-acetyl-glucosamine 1-phosphate Fold Change: 1.06
C+31/C, p-value 0.8378
  1-palmitoyl-2-oleoyl-GPS (16:0/18:1) Fold Change: 1.01
C+31/C, p-value 0.8444
  hypoxanthine Fold Change: 1.01
C+31/C, p-value 0.8761
  lysine Fold Change: 1
C+31/C, p-value 0.9003
  hippurate Fold Change: 1.01
C+31/C, p-value 0.9027
  N-acetylneuraminate Fold Change: 1.01
C+31/C, p-value 0.9106
  1-palmitoyl-2-palmitoleoyl-GPC (16:0/16:1)* Fold Change: 1
C+31/C, p-value 0.9156
  glycerophosphoglycerol Fold Change: 1
C+31/C, p-value 0.9284
  deoxycarnitine Fold Change: 1.02
C+31/C, p-value 0.9846
  mannose Fold Change: 0.96
